# Source: paper PMC12453120, “TrkA of Streptococcus mitis CCUG31611 binds cyclic di-adenosine monophosphate and is required for growth in low potassium conditions” (Microbiology, 2025)
# Legend:
# TrkA = biological target: T1, TrkA (Streptococcus mitis, UniProt A0ACG7RC27); test: nanoDSF, isothermal FoldAffinity fit; format: binding; settings: 500 nM TrkA, 150 mM KCl, 20 mM HEPES, 10% glycerol, pH 7.5
# T1 construct: gene SM12261_0089; full-length ORF (1-221 aa), N-terminal 6xHis tag kept, pET30b, E. coli BL21(DE3); Ni-NTA + SEC; two bands on SDS-PAGE, both TrkA by MS; MS peptide positions up to 227 include the tag
# T1 sequence (A0ACG7RC27 1-221): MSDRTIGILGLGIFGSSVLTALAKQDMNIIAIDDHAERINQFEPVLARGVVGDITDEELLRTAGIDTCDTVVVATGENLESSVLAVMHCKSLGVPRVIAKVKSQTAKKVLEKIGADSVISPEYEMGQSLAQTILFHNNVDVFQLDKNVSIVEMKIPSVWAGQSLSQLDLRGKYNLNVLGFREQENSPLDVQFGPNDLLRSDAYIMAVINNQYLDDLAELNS
# From the text: nanoDSF, isothermal FoldAffinity fit on TrkA
# [1] = biological target: TrkA of Streptococcus mitis CCUG31611 (SM12261_0089), recombinant with N-terminal 6x His-tag (Streptococcus mitis CCUG31611); test: SEC; Sepharose 6 Increase 10-300 GL column, AKTA pure; 150 mM KCl, 20 mM HEPES, pH 7.5; flow 0.2 ml/min; MW estimated from a standard curve of gel filtration markers (12,000-200,000 Da), logMW vs VE/V0
# [2] = Tiso 52 °C, unreliable (above the highest ligand concentration, 500 µM)
molecule,measurement,setting,value
Nc1ncnc2c1ncn2[C@@H]1O[C@H](COP(=O)(O)O)[C@@H](O)[C@H]1O [AMP],"Kd,app (μM)‡","TrkA; Tiso 54 °C, unreliable (above the highest ligand concentration, 500 µM)","2,050.000 ± 494.975 µM"
Nc1nc2c(ncn2[C@@H]2O[C@@H]3COP(=O)(O)O[C@H]4[C@@H](O)[C@H](n5cnc6c(=O)[nH]c(N)nc65)O[C@@H]4COP(=O)(O)O[C@H]3[C@H]2O)c(=O)[nH]1 [c-di-GMP],"Kd,app (μM)‡","TrkA; Tiso 54 °C, unreliable (far above the highest ligand concentration, 500 µM)","100,000.000 ± 0.000 µM"
Nc1ncnc2c1ncn2[C@@H]1O[C@H](COP(=O)(O)O[C@H]2[C@@H](O)[C@H](n3cnc4c(N)ncnc43)O[C@@H]2COP(=O)(O)O)[C@@H](O)[C@H]1O [pApA],"Kd,app (μM)‡",TrkA; [2],"1,650.000 ± 494.975 µM"
"TrkA of Streptococcus mitis CCUG31611 (SM12261_0089), recombinant with N-terminal 6x His-tag (natural protein)",stoichiometry N,[1],8
Nc1ncnc2c1ncn2[C@@H]1O[C@H](COP(=O)(O)OP(=O)(O)OP(=O)(O)O)[C@@H](O)[C@H]1O [ATP],"Kd,app (μM)‡",TrkA; [2],"2,610.000 ± 2390.021 µM"
